We go through two molecules from patent US20090081157A1, “Immunostimulatory Combinations for Vaccine Adjuvants” (priority 2006, published 2009).

The conditions of data set [1]: intravenous infusion, humans with non-small cell lung cancer; cited from earlier work.
In another data set the test system is B16-F10 tumors. In words: Peritumoral immunotherapy of established B16-F10 melanoma tumors. The data set is classed as in vivo, C57BL/6 mice. As to conditions: figure legends. Here is the method:
BALB/c mice were injected with 1×10^6 A 20 tumor cells s.c. and […] mice were injected with 1×10^6 B16-F10 tumor cells s.c. After a palpable tumor appeared (>4 mm), 50 μl PBS or plasmid DNA (50 μg) with or without TLR agonist molecules was injected into and around the tumors every other day×5. Tumors were measured every other day.
[…] mice were injected with 1×10^6 B16-F10 tumor cells s.c. After a palpable tumor appeared (>4 mm), 50 μl PBS or plasmid DNA (50 μg) with or without TLR agonist, in the presence or absence of cationic polymer (JetPEI™ Qbiogene Irvine, Calif.) molecules, was injected into and around the tumors every other day×5. Tumors were measured every other day.
Methods: B16-F10 melanoma cells were cultured in RPMI 1640 with 10% fetal bovine serum. Cells were detached with trypsin-EDTA and washed in phosphate-buffered saline (PBS). Then, 10E5 cells in 100 ul PBS were injected subcutaneously over the abdomen of female C57BL/6 female mice, 6- to 9-weeks old (Jackson Laboratories). […]
ATPγS, a nonhydrolyzable form of ATP was added to various agonists (pSP-D-CD40L+CpG+poly(I:C)+ATPe) and the combination was injected intratumorally in to mice presenting established B16F1 melanomas. […] Tumor size was measured every other day and plotted as the product of two orthogonal diameters (i.e., “tumor area”). […]

On to `Nc1ncnc2c1ncn2[C@@H]1O[C@H](COP(=O)(O)OP(=O)(O)OP(=O)(O)O)[C@@H](O)[C@H]1O` [ATP, adenosine 5′-triphosphate], for which, in data set [1], the maximum tolerated dose is listed as 50 ug/kg per minute. For the molecule “polyriboinosinic-polyribocytidylic acid [Poly I:C]”, the “synergy with CD40L against established B16-F10 tumors” value in the data set on B16-F10 tumors is on record as “synergizes with CD40L”.
